Laboratory results published in patent US9630947B2, “Therapeutic compounds and related methods of use” (OTSUKA PHARMACEUTICAL CO., LTD., priority 2009, dated 2017).

The compounds below were run against T1, purified STEP46 enzyme (Homo sapiens, UniProt P54829) (assay: STEP46 biochemical assay (DiFMUP fluorescence phosphatase assay)). Details: DiFMUP 10 μM, read-out: STEP IC50.
T1 sequence (P54829 1-565): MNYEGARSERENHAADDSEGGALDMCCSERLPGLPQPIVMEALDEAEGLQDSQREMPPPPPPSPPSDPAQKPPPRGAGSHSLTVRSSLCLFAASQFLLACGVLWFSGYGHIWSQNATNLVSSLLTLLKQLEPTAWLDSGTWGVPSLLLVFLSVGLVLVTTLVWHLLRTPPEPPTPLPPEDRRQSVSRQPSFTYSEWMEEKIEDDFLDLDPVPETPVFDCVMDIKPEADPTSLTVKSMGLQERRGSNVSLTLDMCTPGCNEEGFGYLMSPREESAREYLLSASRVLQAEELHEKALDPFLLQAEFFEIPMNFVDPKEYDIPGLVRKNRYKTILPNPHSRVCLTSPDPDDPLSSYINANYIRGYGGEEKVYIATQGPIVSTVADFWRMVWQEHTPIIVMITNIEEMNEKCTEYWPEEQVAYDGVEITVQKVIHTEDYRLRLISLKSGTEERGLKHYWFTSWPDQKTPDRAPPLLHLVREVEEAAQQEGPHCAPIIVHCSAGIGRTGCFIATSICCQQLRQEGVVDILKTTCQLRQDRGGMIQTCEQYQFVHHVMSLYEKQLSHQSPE
Summary of the method: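 Compounds preincubated 30 min at room temperature with purified STEP46 (1 ng/well) in 50 mM Hepes, 1 mM DTT, 0.02% Brij35, then 10 μM DiFMUP (final) added for 90 min at 27 °C; 2% DMSO, fluorescence at 360/460 nm. IC50 from four-parameter fit of % inhibition; activators reported as negative % inhibition at 25, 50 and 100 uM.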

Structure (SMILES)	IC50 [nM]
COc1ccc2nc(-c3cccnc3)nc(Nc3cccc(Br)c3)c2c1 [Compound 425]	1000 to 10000
COc1ccc2nc(-c3ccnnc3)nc(Nc3ccc(Cl)c(Cl)c3)c2c1 [Compound 1184]	1000 to 10000
CN(C)c1ccc2nc(-c3ccnnc3)nc(Nc3ccc(F)c(Cl)c3)c2c1 [Compound 1152]	1000 to 10000
NC(=O)c1cccc(-c2ccc3c(Nc4ccc(F)c(Cl)c4)nc(-c4cccnc4)nc3c2)c1 [Compound 691]	< 1000
Fc1ccc(Nc2nc(-c3cccnc3)nc3ccc(-c4ccoc4)cc23)cc1Cl [Compound 647]	1000 to 10000
Cc1cccc(-c2ccc3c(Nc4ccc(F)c(Cl)c4)nc(-c4cccnc4)nc3c2)c1 [Compound 696]	< 1000
COc1ccc2nc(-c3cccnc3)nc(Nc3ccc4c(c3)COC4)c2c1 [Compound 962]	< 1000
CCOc1ccc2nc(-c3cccnc3)nc(Nc3ccc4nonc4c3)c2c1 [Compound 334]	1000 to 10000
COc1ccc2nc(-c3cccnc3)nc(Nc3nc(-c4cccc(Br)c4)cs3)c2c1 [Compound 447]	1000 to 10000
NC(=O)c1ccccc1Nc1nc(-c2cccnc2)nc2cc(-c3cc(F)cc(F)c3)ccc12 [Compound 707]	< 1000
NC(=O)c1ccccc1Nc1nc(-c2cnccn2)nc2ccc(Cl)cc12 [Compound 1157]	1000 to 10000
CN(C)c1ccc2nc(-c3ccnnc3)nc(Nc3ccccc3C(N)=O)c2c1 [Compound 1151]	1000 to 10000
Fc1ccc(Nc2nc(-c3cnccn3)nc3ccc(Cl)cc23)cc1Cl [Compound 1159]	1000 to 10000
COc1ccc2nc(-c3cccnc3)nc(Nc3ccccc3C(=O)NC3CCc4ccccc43)c2c1 (stereo not drawn) [Compound 898]	> 10000
COc1ccc2nc(-c3ccnnc3)nc(Nc3cccc(C#N)c3)c2c1 [Compound 1187]	< 1000
COc1ccc2nc(-c3cccnc3)nc(Nc3nc(-c4ccccc4Cl)cs3)c2c1 [Compound 431]	< 1000
COc1ccc2nc(-c3cccnc3)nc(Nc3ccccc3C(=O)NC(C)c3ccc(C(F)(F)F)cc3)c2c1 (stereo not drawn) [Compound 889]	1000 to 10000
COc1ccc2nc(-c3cccnc3)nc(Nc3ccc4c(c3)CCC4)c2c1 [Compound 306]	> 10000
CCOC(=O)c1sc(Nc2nc(-c3cccnc3)nc3ccc(OC)cc23)nc1-c1ccccc1 [Compound 466]	1000 to 10000
O=[N+]([O-])c1ccccc1-c1ccc2nc(-c3cccnc3)nc(Nc3ccc(F)c(Cl)c3)c2c1 [Compound 640]	1000 to 10000
CCOC(=O)c1csc(Nc2nc(-c3cccnc3)nc3ccc(OC)cc23)n1 [Compound 474]	1000 to 10000
Fc1ccc(-c2ccc3c(Nc4ccc(F)c(Cl)c4)nc(-c4cccnc4)nc3c2)cc1 [Compound 689]	< 1000

Structure (SMILES)	IC50 [nM]
COc1ccc2nc(-c3cccnc3)nc(Oc3ccc4[nH]c(=O)ccc4c3)c2c1 [Compound 346]	1000 to 10000
NC(=O)c1ccccc1Nc1nc(-c2cccnc2)nc2cc(-c3ccc(F)c(F)c3)ccc12 [Compound 703]	< 1000
COc1ccc2nc(-c3cccnc3)nc(Nc3nc(-c4ccc(Br)cc4)cs3)c2c1 [Compound 415]	1000 to 10000
COc1ccc2nc(-c3cccnc3)nc(Nc3nc(-c4cc(F)ccc4F)cs3)c2c1 [Compound 458]	< 1000
COc1ccc2nc(-c3cccnc3)nc(Nc3nc(-c4ccc(C#N)cc4)cs3)c2c1 [Compound 448]	< 1000
CN(C)c1cccc(-c2ccc3nc(-c4cccnc4)nc(Nc4ccc(F)c(Cl)c4)c3c2)c1 [Compound 643]	< 1000
Fc1ccc(Nc2nc(-c3cccnc3)nc3ccc(-c4ccncc4)cc23)cc1Cl [Compound 651]	< 1000
COc1ccc2nc(-c3cccnc3)nc(Nc3nc(-c4ccc(F)cc4)cs3)c2c1 [Compound 419]	< 1000
Cc1cc(Cl)cc2c(Nc3cccc(OC(F)F)c3)nc(-c3ccnnc3)nc12 [Compound 1165]	< 1000
COc1ccc2nc(-c3cccnc3)nc(Nc3nc(-c4ccc(OC(F)(F)F)cc4)cs3)c2c1 [Compound 442]	< 1000
COc1ccc2nc(-c3cccnc3)nc(Nc3nnc(-c4ccc(Br)cc4)s3)c2c1 [Compound 428]	1000 to 10000
FC(F)Oc1cccc(Nc2nc(-c3cnccn3)nc3cc(Cl)ccc23)c1 [Compound 1145]	1000 to 10000
CCOc1ccc2nc(-c3cccnc3)nc(Nc3nc(-c4ccc(F)cc4F)cs3)c2c1 [Compound 472]	1000 to 10000
Fc1ccc(Nc2nc(-c3cccnc3)nc3ccc(-c4ccccc4)cc23)cc1Cl [Compound 631]	1000 to 10000
Fc1cc(F)cc(-c2ccc3c(Nc4ccc(F)c(Cl)c4)nc(-c4cccnc4)nc3c2)c1 [Compound 675]	< 1000
COc1ccc2nc(-c3cccnc3)nc(Nc3nc(-c4ccc(C)cc4)cs3)c2c1 [Compound 429]	< 1000
N#Cc1cccc(-c2ccc3c(Nc4ccc(F)c(Cl)c4)nc(-c4cccnc4)nc3c2)c1 [Compound 686]	< 1000
NC(=O)c1ccc(-c2ccc3c(Nc4ccc(F)c(Cl)c4)nc(-c4cccnc4)nc3c2)cc1 [Compound 684]	1000 to 10000
NC(=O)c1ccccc1Nc1nc(-c2cccnc2)nc2cc(-c3ccc(F)cc3F)ccc12 [Compound 704]	< 1000
COc1ccc2nc(-c3cccnc3)nc(Nc3nc(-c4ccccc4)cs3)c2c1 [Compound 416]	< 1000
CCOc1ccc2nc(-c3cncnc3)nc(Nc3ccccc3C(N)=O)c2c1 [Compound 1171]	1000 to 10000

Now from value to compound:

IC50 [nM]	Structure (SMILES)
1000 to 10000	Fc1ccc(Nc2nc(-c3ccncn3)nc3ccccc23)cc1Cl [Compound 1206]
1000 to 10000	CNc1nc(-c2cccnc2)nc2cc(-c3cccc(F)c3F)ccc12 [Compound 1371]
1000 to 10000	CNc1nc(-c2cccnc2)nc2c(C)cc(-c3ccc(OC)cc3)cc12 [Compound 1282]
1000 to 10000	CN(C)c1nc(-c2cccnc2)nc2cc(-c3cc(F)ccc3F)ccc12 [Compound 1396]
1000 to 10000	CNc1nc(-c2cccnc2)nc2c(C)c(-c3cc(F)cc(F)c3)ccc12 [Compound 1448]
1000 to 10000	CNc1nc(-c2cccnc2)nc2c(C)c(-c3ccc(OC)cc3)ccc12 [Compound 1455]
1000 to 10000	CNc1nc(-c2cccnc2)nc2ccc(-c3cc(OC)cc(OC)c3)cc12 [Compound 1357]
> 10000	Clc1ccc2c(Nc3ccc(Cl)c(Cl)c3)nc(-c3ccnnc3)nc2c1 [Compound 1204]
1000 to 10000	CCCOCCOc1cccc(-c2ccc3nc(-c4cccnc4)nc(NC)c3c2)c1 [Compound 1497]
1000 to 10000	FC(F)Oc1cccc(Nc2nc(-c3cnccn3)nc3ccccc23)c1 [Compound 1214]
1000 to 10000	Cc1cc(Cl)cc2c(Nc3ccccc3C(=O)O)nc(-c3cnccn3)nc12 [Compound 1227]
1000 to 10000	CNc1nc(-c2cccnc2)nc2cc(-c3cc(F)cc(F)c3)ccc12 [Compound 1374]
1000 to 10000	Cc1cccc(CNc2nc(-c3cccnc3)nc3cc(-c4cc(F)ccc4F)ccc23)n1 [Compound 1430]
1000 to 10000	CNc1nc(-c2cccnc2)nc2ccc(-c3cccc4occc34)cc12 [Compound 1370]
1000 to 10000	Cc1cc(Cl)cc2c(Nc3cccc(C#N)c3)nc(-c3cnccn3)nc12 [Compound 1228]
> 10000	CNc1nc(-c2cccnc2)nc2ccc(-c3cccc(F)c3F)c(C)c12 [Compound 1285]

IC50 [nM]	Structure (SMILES)
1000 to 10000	CNc1nc(-c2cccnc2)nc2c(C)c(-c3cccc(F)c3F)ccc12 [Compound 1451]
1000 to 10000	CNc1nc(-c2cccnc2)nc2cc(C)c(-c3ccc(OC)cc3)cc12 [Compound 1420]
1000 to 10000	CNc1nc(-c2cccnc2)nc2ccc(-c3ccc(F)c(F)c3F)cc12 [Compound 1375]
> 10000	CNc1nc(-c2cccnc2)nc2c(C)c(-c3ccc(F)cc3)ccc12 [Compound 1447]
1000 to 10000	CNc1nc(-c2cccnc2)nc2ccc(-c3ccc(F)c(C(F)(F)F)c3)cc12 [Compound 1401]
> 10000	CNc1nc(-c2cccnc2)nc2cc(-c3ccccc3)ccc12 [Compound 1348]
> 10000	CNc1nc(-c2cccnc2)nc2cc(C)c(-c3ccc(F)cc3F)cc12 [Compound 1415]
1000 to 10000	CNc1nc(-c2cccnc2)nc2cc(-c3cc(F)ccc3F)ccc12 [Compound 1601]
1000 to 10000	CNc1nc(-c2cccnc2)nc2cc(-c3cccc(Cl)c3)ccc12 [Compound 1353]
< 1000	CNc1nc(-c2cccnc2)nc2c(C)cc(-c3cccc(C#N)c3)cc12 [Compound 1281]
> 10000	CNc1nc(-c2cccnc2)nc2ccc(-c3ccc(OC)cc3)c(C)c12 [Compound 1458]
1000 to 10000	CNc1nc(-c2cccnc2)nc2cc(-c3cccc(F)c3)ccc12 [Compound 1359]
> 10000	COCCN(C)c1nc(-c2cccnc2)nc2ccc(-c3cccc(F)c3F)cc12 [Compound 1391]
1000 to 10000	CNc1nc(-c2cccnc2)nc2cc(-c3ccccc3F)ccc12 [Compound 1358]
1000 to 10000	Cc1cccc(CNc2nc(-c3cccnc3)nc3ccc(-c4ccc(F)cc4F)cc23)n1 [Compound 1437]
> 10000	CC(=O)c1ccc(-c2ccc3nc(-c4cccnc4)nc(N)c3c2)cc1 [Compound 1327]
